Reference: patent US20210179655A1, “Prodrugs of a JAK Inhibitor Compound for Treatment of Gastrointestinal Inflammatory Disease” (THERAVANCE BIOPHARMA R&D IP, LLC, priority 2015, published 2021)
Each block holds one compound with its values, some of them ahead of it.

What was measured:
[1] = system: oxazolone-induced colitis; test: Mouse model of oxazolone-induced colitis; type: in vivo
Experimental: Oxazolone-induced colitis is an experimental model that has a histological resemblance to human ulcerative colitis (Heller et al. […], 2002, 17, 629-638). Adult BALB/C mice (25-28 g, 9-12 weeks of age) from BioNeeds (India) were used in the assay. On day 1, animals were lightly anesthetized with isoflurane and the hairs between the shoulder were carefully removed before oxazolone (6 mg/mouse, 100 μL, 4:1 acetone: olive oil formulation) or vehicle solution was slowly applied for skin sensitization. Six days after skin sensitization, the mice were fasted overnight, anesthetized with ketamine and xylazine administered IP, and a 1 mL syringe filled with oxazolone solution, was inserted carefully ˜3.8 cm into the colon of the mouse. Animals were kept in a head down position and oxazolone (0.5 mg/50 μL/mouse in 50% ethanol) or 50% ethanol/saline was rectally instilled very slowly over a minute. The mice were held vertically (head down) for another minute to ensure that the entire oxazolone solution remained inside the colon. Drug treatment (PO, BID or TID) or vehicle was initiated the evening prior to the oxazolone intrarectal (IR) challenge. On both first (Day 1) and second (Day 2) days post-oxazolone IR challenge, the Disease Activity Index (DAI) was assessed by treatment-blinded experimenters for each mouse, according to the following subscores: stool consistency (0, normal; 2, loose; 4, diarrhea), gross bleeding and hemoccult test (0, absence; 2, blood tinged; 4, overt blood presence), and weight loss (0, none; 1, 1%-5%; 2, 6%-10%; 3, 11%-15%; 4, more than 15%); DAI=average of (stool consistency+blood presence+weight loss scores).
An area-under-the-curve (AUC) calculation based on total DAI scores was performed to track disease progression during the course of the experiment. AUC for each experimental group was calculated as: AUC=[(Day 1−Day 0)*Average (DAI Score of Day 0 & Day 1)]+[(Day 2−Day 1)*Average (DAI Score of Day 1 & Day 2)]. A Student's t-test compared the DAI AUC score of the vehicle/vehicle and vehicle/oxazolone groups to evaluate whether disease was induced following oxazolone treatment. This was followed by a one way ANOVA, with Dunnett's post hoc test, to compare the DAI AUC score of the vehicle/oxazolone and test compound/oxazolone groups. Statistical significance was defined by an α level set at p<0.05.

[2] = Rat colon fecal homogenate stability; type: in vitro ADME; conditions: male, rat colon fecal homogenate supernatant, read-out: T½ (In vitro colonic stability, loss of pro-drug)
Experimental: The objective of this study was to determine the stability of the present compounds in rat colon fecal homogenate, i.e. the half-life for decomposition in the presence of the β-glucuronidase in rat colon feces.
Following sacrifice of a naïve male rat (˜300 g) by cardiac puncture exsanguination, the colon was ligated and removed to an anaerobic chamber (AS-580, Anaerobe Systems). The fecal content was removed within the chamber and was diluted 1:10 (1 gram to 9 mL phosphate buffer) and then homogenized using a handheld Omni Tissue Master. The fecal homogenate was centrifuged at 2000 g for 10 min to remove bulk and the supernatant was removed and used for the incubations.
Test articles and a positive control (sulfasalazine) were prepared as 10 mM DMSO stocks. The final substrate concentration of each assay was 10 μM (30 μM for compound 5). Reactions were started by adding a 5 μL aliquot of diluted test compound stock into 300 μL of rat fecal supernatant-homogenate. At 0, 15, 30, 60, 90, and 120 min post reaction initiation, a 50 μL aliquot was removed into 200 μL of acetonitrile with 3% formic acid and an internal standard molecule. All samples were centrifuged at 2000 g for 10 min after which 50 μL of supernatant was diluted into 150 μL of water for analysis on an LC-MS system. In vitro half-lives for loss of pro-drug were calculated as follows: (T½=0.693/elimination rate constant).

[3] = Metabolic stability of comparison compounds in rat colon content; type: in vitro ADME; conditions: 10 μM in rat colonic content, up to 120 min
Experimental: Colonic fecal content was harvested from a naïve male Sprague Dawley rat and was diluted 1:10 (1 gram to 9 mL phosphate buffer) and then homogenized using a handheld Omni Tissue Master. […] A 5 μL aliquot of diluted test compound was spiked into 300 μL of rat colonic content homogenate to begin the reaction at 37° C. Aliquots (50 μL) were removed from the incubation at the following time points (0, 15, 50, 85, and 120 min) and added into 200 μL of ACN with 3% formic acid and an internal standard molecule. […] All samples were centrifuged at 2000×g for 10 min after which 50 μL of supernatant was diluted into 150 μL of water and analyzed using a Thermo Q-Exactive LC-MS system. GraphPad Prism and Microsoft Excel were used to tabulate and plot the data.

[4] = system: splenic NK cells; test: Immunosuppression effects in mouse splenic natural killer (NK) cells; type: in vivo; conditions: mouse, oral dosing for three days
Experimental: Adult male Balb/C mice (12-14 weeks of age) from Harlan were used for the study. […] Spleens were harvested 30 min or 3 h post last dose and crushed immediately for cell subtype staining. Prior to fixation, fluorophore-labelled antibodies for CD19 (FITC; B cells), CD3e (PE; pan T cells) and DX5 (APC; NK cells) were incubated with splenocyte samples from each animal to allow for simultaneous, multiple subtype % analysis on the flow cytometer. The number of total spleen cells for each animal was measured by Scepter™ 2.0 Handheld Automated Cell Counter.
The absolute number of lymphocyte subtype population (e.g., splenic B, T and NK cells) was calculated from the percentage of each subtype times total spleen cells for each animal. A one way ANOVA, with Dunnett's post hoc test, was used to compare the splenic lymphocytes number of the vehicle and test compound groups. The a level was set at p<0.05. Data were presented as the mean SEM for each group.

half-life at 10 μM [2]: 1 to 13 min
Compound: C[C@@H]1CCN(C(=O)CC#N)C[C@@H]1N(C)c1ncnc2c1ccn2C(=O)N(C)CCN(C)C(=O)OCc1ccc(O[C@@H]2O[C@H](C(=O)O)[C@@H](O)[C@H](O)[C@H]2O)cc1 [Compound 4, (2S,3S,4S,5R,6S)-6-(4-((((2-(4-(((3R,4R)-1-(2-cyanoacetyl)-4-methylpiperidin-3-yl)(methyl)amino)-N-methyl-7H-pyrrolo[2,3-d]pyrimidine-7-carboxamido)ethyl)(methyl)carbamoyl)oxy)methyl)phenoxy)-3,4,5-trihydroxytetrahydro-2H-pyran-2-carboxylic acid]
reversal of oxazolone-induced colitis (DAI AUC score) ([1]; separate experiment, 3, 10, and 30 mg/kg, PO, BID, similar magnitude to tofacitinib 30 mg/kg): significant reversal

half-life at 30 μM ([2]; 30 μM): 6 min
Compound: Cc1cc(COC(=O)N(C)CCN(C)C(=O)n2ccc3c(N(C)[C@H]4CN(C(=O)CC#N)CC[C@H]4C)ncnc32)ccc1O[C@@H]1O[C@H](C(=O)O)[C@@H](O)[C@H](O)[C@H]1O [Compound 5, (2S,3S,4S,5R,6S)-6-(4-((((2-(4-(((3R,4R)-1-(2-cyanoacetyl)-4-methylpiperidin-3-yl)(methyl)amino)-N-methyl-7H-pyrrolo[2,3-d]pyrimidine-7-carboxamido)ethyl)(methyl)carbamoyl)oxy)methyl)-2-methylphenoxy)-3,4,5-trihydroxytetrahydro-2H-pyran-2-carboxylic acid]

half-life at 10 μM [2]: 7 min
Compound: C[C@@H]1CCN(C(=O)CC#N)C[C@@H]1N(C)c1ncnc2c1ccn2C(=O)N(C)CCN(C)C(=O)OCc1ccc(O[C@@H]2O[C@H](C(=O)O)[C@@H](O)[C@H](O)[C@H]2O)c(Cl)c1 [Compound 6, (2S,3S,4S,5R,6S)-6-(2-chloro-4-((((2-(4-(((3R,4R)-1-(2-cyanoacetyl)-4-methylpiperidin-3-yl)(methyl)amino)-N-methyl-7H-pyrrolo[2,3-d]pyrimidine-7-carboxamido)ethyl)(methyl)carbamoyl)oxy)methyl)phenoxy)-3,4,5-trihydroxytetrahydro-2H-pyran-2-carboxylic acid]

half-life at 10 μM [2]: 3 to 8 min
Compound: COc1cc(COC(=O)N(C)CCN(C)C(=O)n2ccc3c(N(C)[C@H]4CN(C(=O)CC#N)CC[C@H]4C)ncnc32)ccc1O[C@@H]1O[C@H](C(=O)O)[C@@H](O)[C@H](O)[C@H]1O [Compound 7, (2S,3S,4S,5R,6S)-6-(4-((((2-(4-(((3R,4R)-1-(2-cyanoacetyl)-4-methylpiperidin-3-yl)(methyl)amino)-N-methyl-7H-pyrrolo[2,3-d]pyrimidine-7-carboxamido)ethyl)(methyl)carbamoyl)oxy)methyl)-2-methoxyphenoxy)-3,4,5-trihydroxytetrahydro-2H-pyran-2-carboxylic acid]

Compound: CN(CCN(C)C(=O)OCc1ccc(O[C@@H]2O[C@H](C(=O)O)[C@@H](O)[C@H](O)[C@H]2O)c([N+](=O)[O-])c1)C(=O)Nc1ccc(O)c(C(=O)O)c1 [Compound C-1]
generation of active metabolite from the pro-drug [3]: failed to generate any measurable amounts

Compound: Cc1cc(S(C)(=O)=O)ncc1-c1ccc2c(c1)cc(-c1cncc(F)c1C)n2C(=O)N(C)CCN(C)C(=O)OCc1ccc(O[C@@H]2O[C@H](C(=O)O)[C@@H](O)[C@H](O)[C@H]2O)c([N+](=O)[O-])c1 [Compound C-2]
generation of active metabolite from the pro-drug [3]: failed to generate any measurable amounts

Compound: C[C@@H]1CCN(C(=O)CC#N)C[C@@H]1N(C)c1ncnc2[nH]ccc12 [Tofacitinib, 3-((3R,4R)-4-methyl-3-(methyl(7H-pyrrolo[2,3-d]pyrimidin-4-yl)amino)piperidin-1-yl)-3-oxopropanenitrile, reference compound]
Systemic functional activity (splenic NK depletion) [4]: 10 mg/kg
In vivo efficacy (oxazolone colitis), effective dose ([1]; Effective dose that exhibits a comparable pharmacological effect in the oxazolone model compared to its vehicle): 30 mg/kg
